According to ChEMBL document CHEMBL1201862, “PubChem BioAssay data set” (2004):
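Assay format: 96-well plates, 48-hour exposure. The concentration for 50% growth inhibition is given as GI50.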 Active and inactive are the calls of the source. No stated cut-off is given here; in the data, active = GI50 up to about 1.1 µM and inactive = higher.

Tests used:
Assay in all cases: NCI tumour cell line growth inhibition, 48 h
[1] = system: SK-OV-3
[2] = system: MOLT-4
[3] = system: UO-31
[4] = system: K562
[5] = system: OVCAR-8
[6] = system: SNB-75
[7] = system: T47D
[8] = system: NCI-H23
[9] = system: A498
[10] = system: SW-620
[11] = system: EKVX
[12] = system: M14
[13] = system: HCT-15
[14] = system: KM12
[15] = system: OVCAR-5
[16] = system: COLO 205
[17] = system: MCF7
[18] = system: SK-MEL-5
[19] = system: Hs-578T
[20] = system: SNB-19
[21] = system: CAKI-1
[22] = system: U-251
[23] = system: HOP-92
[24] = system: OVCAR-4
[25] = system: OVCAR-3
[26] = system: SN12C
[27] = system: UACC-62
[28] = system: SR
[29] = system: SK-MEL-28
[30] = system: HT-29
[31] = system: ACHN
[32] = system: HCT-116
[33] = system: HOP-62
[34] = system: NCI/ADR-RES
[35] = system: LOX IMVI
[36] = system: 786-0
[37] = system: HL-60
[38] = system: UACC-257
[39] = system: MDA-N
[40] = system: MDA-MB-435
[41] = system: RXF 393
[42] = system: A549
[43] = system: SK-MEL-2
[44] = system: HCC 2998
[45] = system: NCI-H460
[46] = system: DU-145
[47] = system: PC-3
[48] = system: NCI-H226
[49] = system: TK-10
[50] = system: RPMI-8226
[51] = system: SF-295
[52] = system: SF-268
[53] = system: MDA-MB-231
[54] = system: Malme-3M
[55] = system: CCRF-CEM
[56] = system: IGROV-1
[57] = system: SF-539
[58] = system: BT-549
[59] = system: NCI-H522

O=C(C1=CCC2(CC1)OCCO2)N(Cc1ccccc1)c1ccccc1I
GI50 [1]: 32.1 µM (inactive) | GI50 [2]: 63.8 µM (inactive) | GI50 [3]: 17.6 µM (inactive) | GI50 [4]: 43.2 µM (inactive) | GI50 [5]: 16.4 µM (inactive) | GI50 [6]: 14.1 µM (inactive) | GI50 [7]: 18.4 µM (inactive) | GI50 [8]: 19.7 µM (inactive) | GI50 [9]: 22.5 µM (inactive) | GI50 [10]: 29.7 µM (inactive) | GI50 [11]: 16.4 µM (inactive) | GI50 [12]: 16.9 µM (inactive) | GI50 [13]: 23 µM | GI50 [14]: 14.1 µM (inactive) | GI50 [15]: 18.1 µM (inactive) | GI50 [16]: 17.7 µM (inactive) | GI50 [17]: 26.4 µM (inactive) | GI50 [18]: 13.9 µM (inactive) | GI50 [19]: 0.181 µM (active) | GI50 [20]: 18.9 µM (inactive) | GI50 [21]: 24.5 µM (inactive) | GI50 [22]: 19.9 µM (inactive) | GI50 [23]: 16.1 µM (inactive) | GI50 [24]: 14.9 µM (inactive) | GI50 [25]: 21.3 µM (inactive) | GI50 [26]: 24 µM (inactive) | GI50 [27]: 13.5 µM (inactive) | GI50 [28]: 12.8 µM (inactive) | GI50 [29]: 21.2 µM (inactive) | GI50 [30]: 17.9 µM (inactive) | GI50 [31]: 20.8 µM (inactive) | GI50 [32]: 14.8 µM (inactive) | GI50 [33]: 22.4 µM (inactive) | GI50 [34]: 15 µM (inactive) | GI50 [35]: 21.2 µM (inactive) | GI50 [36]: 18.8 µM (inactive) | GI50 [37]: 18 µM (inactive) | GI50 [38]: 19.2 µM (inactive) | GI50 [39]: 29 µM (inactive) | GI50 [40]: 19.7 µM (inactive) | GI50 [41]: 28.3 µM (inactive) | GI50 [42]: 28 µM (inactive) | GI50 [43]: 21.2 µM (inactive) | GI50 [44]: 16.8 µM (inactive) | GI50 [45]: 18.9 µM (inactive) | GI50 [46]: 32.8 µM (inactive) | GI50 [47]: 26.3 µM (inactive) | GI50 [48]: 19.9 µM (inactive) | GI50 [49]: 21.5 µM (inactive) | GI50 [50]: 24.4 µM (inactive) | GI50 [51]: 21.4 µM (inactive) | GI50 [52]: 13.4 µM (inactive) | GI50 [53]: 20 µM (inactive)

Cc1c2cccc-2ccc2c3ccccc3n(C(=O)c3ccc(Cl)cc3)c12
GI50 [1]: > 100 µM (inactive) | GI50 [2]: > 85.5 µM (inactive) | GI50 [54]: > 100 µM (inactive) | GI50 [3]: > 100 µM (inactive) | GI50 [4]: > 100 µM (inactive) | GI50 [5]: > 100 µM (inactive) | GI50 [6]: > 100 µM (inactive) | GI50 [7]: 1.39 µM (inactive) | GI50 [8]: > 100 µM (inactive) | GI50 [9]: > 100 µM (inactive) | GI50 [55]: > 57 µM (inactive) | GI50 [10]: > 100 µM (inactive) | GI50 [11]: 34.1 µM (inactive) | GI50 [12]: > 100 µM (inactive) | GI50 [13]: 10.6 µM | GI50 [14]: 26.7 µM (inactive) | GI50 [15]: > 100 µM (inactive) | GI50 [16]: 46.7 µM (inactive) | GI50 [17]: 0.479 µM (active) | GI50 [18]: > 100 µM (inactive) | GI50 [19]: > 91.2 µM (inactive) | GI50 [20]: > 100 µM (inactive) | GI50 [21]: > 100 µM (inactive) | GI50 [22]: > 100 µM (inactive) | GI50 [23]: > 100 µM (inactive) | GI50 [56]: > 100 µM (inactive) | GI50 [24]: > 100 µM (inactive) | GI50 [25]: > 100 µM (inactive) | GI50 [26]: > 100 µM (inactive) | GI50 [57]: > 100 µM (inactive) | GI50 [27]: > 100 µM (inactive) | GI50 [28]: > 63.7 µM (inactive) | GI50 [29]: > 100 µM (inactive) | GI50 [58]: > 100 µM (inactive) | GI50 [30]: > 76.7 µM (inactive) | GI50 [31]: > 100 µM (inactive) | GI50 [59]: > 100 µM (inactive) | GI50 [32]: 96.8 µM (inactive) | GI50 [33]: > 100 µM (inactive) | GI50 [34]: > 100 µM (inactive) | GI50 [35]: > 100 µM (inactive) | GI50 [36]: > 100 µM (inactive) | GI50 [37]: > 82.6 µM (inactive) | GI50 [38]: > 100 µM (inactive) | GI50 [40]: > 100 µM (inactive) | GI50 [41]: > 100 µM (inactive) | GI50 [42]: > 100 µM (inactive) | GI50 [43]: > 100 µM (inactive) | GI50 [45]: > 89.7 µM (inactive) | GI50 [46]: > 100 µM (inactive) | GI50 [47]: > 100 µM (inactive) | GI50 [48]: > 100 µM (inactive) | GI50 [49]: > 100 µM (inactive) | GI50 [50]: 45.1 µM (inactive) | GI50 [51]: > 100 µM (inactive) | GI50 [52]: > 100 µM (inactive) | GI50 [53]: > 100 µM (inactive)

Cc1cc(Br)c(O)c(-c2cscn2)c1
GI50 [1]: 54.6 µM (inactive) | GI50 [54]: 21.8 µM (inactive) | GI50 [3]: 12.7 µM (inactive) | GI50 [4]: 7.64 µM (inactive) | GI50 [5]: 10.9 µM (inactive) | GI50 [8]: 14.4 µM (inactive) | GI50 [9]: 23.7 µM (inactive) | GI50 [55]: 6.55 µM (inactive) | GI50 [10]: 12.3 µM (inactive) | GI50 [11]: 33.1 µM (inactive) | GI50 [12]: 23.6 µM (inactive) | GI50 [13]: 5.57 µM | GI50 [15]: 20.6 µM (inactive) | GI50 [16]: 18 µM (inactive) | GI50 [18]: 16.8 µM (inactive) | GI50 [19]: 19.3 µM (inactive) | GI50 [20]: 15.2 µM (inactive) | GI50 [21]: 24.2 µM (inactive) | GI50 [23]: 19.5 µM (inactive) | GI50 [56]: 22.9 µM (inactive) | GI50 [24]: 14.6 µM (inactive) | GI50 [25]: 52.5 µM (inactive) | GI50 [26]: 10.5 µM (inactive) | GI50 [57]: 20 µM (inactive) | GI50 [27]: 12.7 µM (inactive) | GI50 [58]: 10.9 µM (inactive) | GI50 [30]: 27.3 µM (inactive) | GI50 [31]: 14 µM (inactive) | GI50 [32]: 12.6 µM (inactive) | GI50 [33]: 22.5 µM (inactive) | GI50 [34]: 24 µM (inactive) | GI50 [35]: 10.2 µM (inactive) | GI50 [36]: 2.43 µM (inactive) | GI50 [37]: 3.66 µM (inactive) | GI50 [38]: > 10 µM (inactive) | GI50 [40]: 20.7 µM (inactive) | GI50 [42]: 20.2 µM (inactive) | GI50 [43]: 19.3 µM (inactive) | GI50 [44]: 19 µM (inactive) | GI50 [45]: 21.4 µM (inactive) | GI50 [47]: 10.3 µM (inactive) | GI50 [49]: 22.4 µM (inactive) | GI50 [50]: 4.81 µM (inactive) | GI50 [51]: 23.2 µM (inactive)
